Converted amounts (≈) assume the structure as drawn. Read-outs that look alike come from different tables or passages of the source.
How the values were obtained:
[1] = test system: K. pneumoniae A-15130; assay: MIC, tube dilution, Klebsiella pneumoniae A15130; type: cell-based; details: Klebsiella pneumoniae, A15130, K. pneumoniae A15130; overnight 37° C.; read-out: Minimum Inhibitory Concentration (M.I.C.)
Text: (§1) Representative compounds of the present invention were subjected to in vitro antibiotic screening against a variety of microorganisms.

[2] = test system: Proteus rettgeri A21203; assay: MIC, tube dilution, Proteus rettgeri A21203; type: cell-based; details: Providencia rettgeri, overnight 37° C., read-out: Minimum Inhibitory Concentration (M.I.C.)
Text: as §1

[3] = test system: Pr. mirabilis A-9900; assay: MIC, tube dilution, Proteus mirabilis A9900; type: cell-based; details: Proteus mirabilis, A9900, Proteus mirabilis A9900; overnight 37° C.; read-out: Minimum Inhibitory Concentration (M.I.C.)
Text: as §1

[4] = test system: Ent. cloacae A-9656; assay: MIC, tube dilution, Enterobacter cloacae A9656; type: cell-based; details: overnight 37° C., read-out: Minimum Inhibitory Concentration (M.I.C.)
Text: as §1

[5] = test system: S. aureus A9537; assay: In vivo protection of mice, lethal infection with S. aureus A9537; details: Staphylococcus aureus, 2 treatments, 1 × 10^6 organisms, read-out: PD50
Description: (§2) Representative compounds of the present invention were also tested in vivo in mice and their PD50 (dose of compound in mg/kg required to protect 50% of the treated mice against an otherwise lethal infection of a micro-organism) values determined with respect to the test organisms shown below.

[6] = test system: Pr. morganii A-15153; assay: MIC, tube dilution, Proteus morganii A15153; type: cell-based; details: Morganella morganii, A15153, Proteus morganii A15153; overnight 37° C.; read-out: Minimum Inhibitory Concentration (M.I.C.)
Text: as §1

[7] = test system: Ps. aeruginosa A-9843A; assay: MIC, tube dilution, Pseudomonas aeruginosa A9843A; type: cell-based; details: Pseudomonas aeruginosa, A9843A, read-out: Minimum Inhibitory Concentration (M.I.C.), Pseudomonas aeruginosa A9843A; overnight 37° C.
Text: as §1

[8] = test system: Hemophilus influenzae A9833; assay: MIC, tube dilution, Hemophilus influenzae A9833; type: cell-based; details: Haemophilus influenzae
Text: as §1

[9] = test system: Str. pneumoniae A-9585; assay: MIC, tube dilution, Streptococcus pneumoniae A9585; type: cell-based; details: Streptococcus pneumoniae, A9585, Str. pneumoniae A9585; overnight 37° C., Nutrient Broth; read-out: Minimum Inhibitory Concentration (M.I.C.)
Text: as §1

[10] = test system: Str. pyogenes A-9604; assay: MIC, tube dilution, Streptococcus pyogenes A9604; type: cell-based; details: Streptococcus pyogenes, A9604, Str. pyogenes A9604; overnight 37° C., Nutrient Broth; read-out: Minimum Inhibitory Concentration (M.I.C.)
Text: as §1

[11] = test system: Staph. aureus (Pen-Res) A-9606; assay: MIC, tube dilution, Staphylococcus aureus A9606 (Pen-Res); type: cell-based; details: Staphylococcus aureus, Staph. aureus A9606 (Pen-Res); overnight 37° C.; read-out: Minimum Inhibitory Concentration (M.I.C.)
Text: as §1

[12] = test system: E. coli A-20341-1; assay: MIC, tube dilution, Escherichia coli A20341-1; type: cell-based
Text: as §1

[13] = test system: Staph. aureus A-9537; assay: MIC, tube dilution, Staphylococcus aureus A9537; type: cell-based; details: Staphylococcus aureus, A9537, Staph. aureus A9537; overnight 37° C., Nutrient Broth; read-out: Minimum Inhibitory Concentration (M.I.C.)
Text: as §1

[14] = test system: Ser. marcescens A-20019; assay: MIC, tube dilution, Serratia marcescens A20019; type: cell-based; details: Serratia marcescens, A20019, Serratia marcescens A20019; overnight 37° C.; read-out: Minimum Inhibitory Concentration (M.I.C.)
Text: as §1

[15] = test system: Staph. aureus A-9537 and 50% serum; assay: MIC, tube dilution, Staph. aureus A9537 + 50% serum; type: cell-based, Staphylococcus aureus; details: Staphylococcus aureus, overnight 37° C., read-out: Minimum Inhibitory Concentration (M.I.C.)
Text: as §1

[16] = test system: Ps. aeruginosa A-21213; assay: MIC, tube dilution, Pseudomonas aeruginosa A21213; type: cell-based; details: overnight 37° C., read-out: Minimum Inhibitory Concentration (M.I.C.)
Text: as §1

[17] = test system: Klebsiella species A20468; assay: MIC, tube dilution, Klebsiella species A20468; type: cell-based; details: Klebsiella species (K. pneumoniae) A20468; overnight 37° C.; read-out: Minimum Inhibitory Concentration (M.I.C.)
Text: as §1

[18] = test system: Ent. cloacae A-9659; assay: MIC, tube dilution, Enterobacter cloacae A9659; type: cell-based; details: Enterobacter cloacae, A9659, Enterobacter cloacae A9659; overnight 37° C.; read-out: Minimum Inhibitory Concentration (M.I.C.)
Text: as §1

[19] = Mouse blood levels after intramuscular administration; type: in vivo; details: average of 6 mice, read-out: Mouse blood level; for concentration at 10 min: 10 minutes after IM 40 mg/kg; for concentration at 20 min: 20 minutes after IM 40 mg/kg; for concentration at 0.5 h: 30 minutes after IM 40 mg/kg; for concentration at 0.75 h: 45 minutes after IM 40 mg/kg; for concentration at 1 h: 60 minutes after IM 40 mg/kg; for concentration at 1.5 h: 90 minutes after IM 40 mg/kg; for concentration at 2 h: 120 minutes after IM 40 mg/kg
Description: Mouse blood levels after intramuscular administration of representative compounds of the present invention were determined and are reported in the table below.

[20] = test system: Str. faecalis A-20688; assay: MIC, tube dilution, Streptococcus faecalis A20688; type: cell-based; details: Enterococcus faecalis, A20688, Str. faecalis A20688; overnight 37° C.; read-out: Minimum Inhibitory Concentration (M.I.C.)
Text: as §1

[21] = test system: Staph. aureus (Meth-Res) A-15097; assay: MIC, tube dilution, Staphylococcus aureus A15097 (Meth-Res); type: cell-based; details: Staphylococcus aureus, overnight 37° C.
Text: as §1

[22] = test system: E. coli A-15119; assay: MIC, tube dilution, Escherichia coli A15119; type: cell-based; details: Escherichia coli, A15119, E. coli A15119; overnight 37° C.; read-out: Minimum Inhibitory Concentration (M.I.C.)
Text: as §1

[23] = test system: Gram-negative and Gram-positive organisms; details: literature; cited from earlier work
[24] = test system: β-lactamases; details: literature; cited from earlier work
[25] = test system: Proteus vulgaris A21559; assay: MIC, tube dilution, Proteus vulgaris A21559; type: cell-based; details: Proteus vulgaris, A21559, Proteus vulgaris A21559; overnight 37° C.; read-out: Minimum Inhibitory Concentration (M.I.C.)
Text: as §1

[26] = stability of isolated product (light, handling); type: physicochemical
[27] = test system: E. coli A15119; assay: In vivo protection of mice, lethal infection with E. coli A15119; details: Escherichia coli, IM, 2 treatments, 7 × 10^5 organisms, read-out: PD50
Description: as §2

[28] = A21203, Proteus rettgeri A21203
[29] = Enterobacter cloacae, A9656, Enterobacter cloacae A9656
[30] = Hemophilus influenzae A9833, overnight 37° C., read-out: Minimum Inhibitory Concentration (M.I.C.)
[31] = Escherichia coli, A203411, E. coli A20341-1; overnight 37° C.; read-out: Minimum Inhibitory Concentration (M.I.C.)
[32] = Pseudomonas aeruginosa, A21213, Pseudomonas aeruginosa A21213
[33] = Staph. aureus A15097 (Meth-Res), read-out: Minimum Inhibitory Concentration (M.I.C.)

SMILES	MIC [1] [mg/L]	MIC [3] [mg/L]	MIC [6] [mg/L]	MIC [7] [mg/L]	MIC [9] [mg/L]	MIC [10] [mg/L]	MIC [11] [mg/L]	MIC [13] [mg/L]	MIC [14] [mg/L]	MIC [15] [mg/L]	MIC [17] [mg/L]	MIC [18] [mg/L]	MIC [20] [mg/L]	MIC [22] [mg/L]	MIC [2, 28] [mg/L]	MIC [4, 29] [mg/L]	MIC [12, 31] [mg/L]	MIC [16, 32] [mg/L]	MIC [21, 33] [mg/L]	β-lactamase inhibition [24]	further results
NCCC1=C(C(=O)O)N2C(=O)CC2S1 (centres unmarked) [Example 24, 2-Aminoethylpenem-3-carboxylic Acid]	> 125	63 (≈ 294 µM)	125 (≈ 583 µM)	125 (≈ 583 µM)	2 (≈ 9.34 µM)	2 (≈ 9.34 µM)	8 (≈ 37.3 µM)	4 (≈ 18.7 µM)	63 (≈ 294 µM)	16	125 (≈ 583 µM)	63 (≈ 294 µM)	63 (≈ 294 µM)	32 (≈ 149 µM)	–	–	–	–	–	–	MIC ([2]; Proteus rettgeri A21203): 125 mg/L (≈ 583 µM); MIC ([4]; Enterobacter cloacae A9656): 125 mg/L (≈ 583 µM); ED50 ([5]; A9537, im, IM): 0.63 mg/kg; MIC ([8]; A9833, read-out: Minimum Inhibitory Concentration (M.I.C.)): > 125 mg/L; MIC ([12]; Escherichia coli, A203411; E. coli A20341-1; overnight 37° C.; read-out: Minimum Inhibitory Concentration (M.I.C.)): 125 mg/L (≈ 583 µM); MIC ([16]; Pseudomonas aeruginosa A21213): > 125 mg/L; concentration at 10 min [19]: 51.4 µg/mL; concentration at 20 min [19]: 37.1 µg/mL; concentration at 0.5 h [19]: 21.8 µg/mL; concentration at 0.75 h [19]: 9.4 µg/mL; concentration at 1 h [19]: 5 µg/mL; concentration at 1.5 h [19]: < 3.1 µg/mL; concentration at 2 h [19]: < 3.1 µg/mL; MIC ([21]; read-out: Minimum Inhibitory Concentration (M.I.C.), Staph. aureus A15097 (Meth-Res)): > 125 mg/L
C[C@@H](O)[C@H]1C(=O)N2C(C(=O)O)=C(SCCN)C[C@H]12 [thienamycin]	–	–	–	–	–	–	–	–	–	–	–	–	–	–	–	–	–	–	–	–	antibacterial activity [23]: highly potent broad-spectrum antibiotic
CC(=O)NCCC1=C(C(=O)O)N2C(=O)CC2S1 (centres unmarked) [Example 25, Sodium 2-(2'-Acetamido-1'-ethyl)penem-3-carboxylate]	16	4	4	16	0.25	0.25	1	0.5	4	8	> 125	4	63	4	8	8	63	> 125	125	–	MIC [8, 30]: > 125 mg/L
COC(=O)C1=C(C)OC2C(NC(c3ccccc3)(c3ccccc3)c3ccccc3)C(=O)N12 (centres unmarked)	–	–	–	–	–	–	–	–	–	–	–	–	–	–	–	–	–	–	–	weak inhibitor of β-lactamases	–
NC1CC1C1=C(C(=O)O)N2C(=O)CC2S1 (stereo not drawn) [Example 99, 2-(trans-2-Aminocyclopropyl)-penem-3-carboxylic Acid]	32 (≈ 141 µM)	8 (≈ 35.4 µM)	16 (≈ 70.7 µM)	> 63	1 (≈ 4.42 µM)	1 (≈ 4.42 µM)	4 (≈ 17.7 µM)	1 (≈ 4.42 µM)	16 (≈ 70.7 µM)	16	> 63	16 (≈ 70.7 µM)	63 (≈ 278 µM)	8 (≈ 35.4 µM)	8 (≈ 35.4 µM)	16 (≈ 70.7 µM)	63 (≈ 278 µM)	> 63	32 (≈ 141 µM)	–	MIC [25]: 16 mg/L (≈ 70.7 µM); stability [26]: suspected to be very light sensitive
N[C@H]1C[C@@H](C2=C(C(=O)O)N3C(=O)C[C@H]3S2)C1 [Example 78, 2-(cis-3'-Aminocyclobutyl)penem-3-carboxylic Acid]	4 (≈ 16.6 µM)	4 (≈ 16.6 µM)	8 (≈ 33.3 µM)	16 (≈ 66.6 µM)	0.03 (≈ 0.125 µM)	0.06 (≈ 0.25 µM)	16 (≈ 66.6 µM)	0.13 (≈ 0.541 µM)	4 (≈ 16.6 µM)	2	> 125	4 (≈ 16.6 µM)	16 (≈ 66.6 µM)	2 (≈ 8.32 µM)	4 (≈ 16.6 µM)	4 (≈ 16.6 µM)	16 (≈ 66.6 µM)	> 125	8 (≈ 33.3 µM)	–	ED50 ([5]; A9537, im, IM): 0.63 mg/kg; ED50 ([5]; A9537, po, PO): 2.5 mg/kg; MIC [25]: 4 mg/L (≈ 16.6 µM); ED50 [27]: 28 mg/kg; concentration at 10 min [19]: 29.7 µg/mL; concentration at 20 min [19]: 19.3 µg/mL; concentration at 0.5 h [19]: 12.6 µg/mL; concentration at 0.75 h [19]: 6.6 µg/mL; concentration at 1 h [19]: < 5 µg/mL; concentration at 1.5 h [19]: < 5 µg/mL; concentration at 2 h [19]: < 5 µg/mL
O=C(O)C1=C(CCCNO)SC2CC(=O)N12 (centres unmarked) [Example 26]	8 (≈ 32.8 µM)	1 (≈ 4.09 µM)	1 (≈ 4.09 µM)	1 (≈ 4.09 µM)	0.016 (≈ 0.0655 µM)	0.06 (≈ 0.246 µM)	8 (≈ 32.8 µM)	0.13 (≈ 0.532 µM)	1 (≈ 4.09 µM)	4	> 125	2 (≈ 8.19 µM)	63 (≈ 258 µM)	0.5 (≈ 2.05 µM)	2 (≈ 8.19 µM)	1 (≈ 4.09 µM)	63 (≈ 258 µM)	125 (≈ 512 µM)	125 (≈ 512 µM)	–	MIC [8, 30]: 125 mg/L (≈ 512 µM)
CC(=O)NC=C[S+]([O-])C1=C(C(=O)O)N2C(=O)C(C(C)OS(=O)(=O)O)C2C1 (centres unmarked)	–	–	–	–	–	–	–	–	–	–	–	–	–	–	–	–	–	–	–	β-lactamase inhibitor	antibacterial activity [23]: some antibacterial activity
CC(=O)OC[C@H]1C(=O)N2C(C(=O)O)=C(CN)S[C@H]12 (relative stereo) [cis 6-Acetoxymethyl-2-aminomethylpenem-3-carboxylic Acid]	–	–	–	–	–	–	–	–	–	–	–	–	–	–	–	–	–	–	–	–	stability [26]: unstable
O=C(O)C1=CSC2CC(=O)N12 (centres unmarked) [drawing 10]	–	–	–	–	–	–	–	–	–	–	–	–	–	–	–	–	–	–	–	no β-lactamase inhibitory activity	–

From patent publication US4272437A, “Antibacterial agents, and 4-thio azetidinone intermediates” (priority 1979, dated 1981)
